Results from patent US10941157B2, “Pesticidal compositions and uses thereof” (Gilead Apollo, LLC, priority 2015, dated 2021).
In brackets after ≈: the same amount, converted by molar mass. Like-named read-outs stand apart in the source and are kept apart here.

Experiments:
Assay type in all cases: cell-based
Septoria tritici (St) = test: In vitro pathogen growth inhibition assay, St; settings: Zymoseptoria tritici, 48 h
In short: (§1)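 Value reported is the compound concentration reaching ≥90% growth inhibition, from OD readings at 24 and 48 h after blank subtraction, confirmed visually. Inoculum was spores diluted in 17% V8 medium, except Rs, using 1.5 mm mycelial plugs in ¼ PDB; actual compound concentration corrected via OD600.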

[1] = system: Collectotrichum graminicola (Cg); test: In vitro pathogen growth inhibition assay, Cg; settings: 48 h
In short: as §1

[2] = system: Fusarium virguliforme (Fv); test: In vitro pathogen growth inhibition assay, Fv
In short: (§2)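 Spores of Dm, Fv and Pc were diluted in 17% V8 liquid medium; Rs used 1.5 mm mycelial plugs in ¼ PDB. Compounds from 2.5 mg/ml DMSO stocks were combined with inoculum, growth was read by OD600 at 24 and 48 h with blank subtraction, and the reported value is the concentration giving ≥90% inhibition.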

Botrtyis cinerea (Bc) = test: In vitro pathogen growth inhibition assay, Bc; settings: 48 h
In short: as §1

Rhizoctonia solani (Rs) = test: In vitro pathogen growth inhibition assay, Rs (mycelial plugs); settings: Rhizoctonia solani, 48 h
In short: as §2

[3] = system: Fusarium moniliforme (Fm); test: In vitro pathogen growth inhibition assay, Fm; settings: Fusarium verticillioides
In short: as §1

[4] = system: Phytophthora capsici (Pc); test: In vitro pathogen growth inhibition assay, Pc; settings: 48 h
In short: as §2

Diplodia maydis (Dm) = test: In vitro pathogen growth inhibition assay, Dm; settings: Stenocarpella maydis, 48 h
In short: as §2

[5] = ≥90% growth inhibition, 48 hours, vs 2% DMSO control, read-out: Compound Concentration (ppm) sufficient for ≥90% inhibition of St
[6] = ≥90% growth inhibition, 48 hours, vs 2% DMSO control, read-out: Compound Concentration (ppm) sufficient for ≥90% inhibition of Cg
[7] = ≥90% growth inhibition, 48 hours, vs 2% DMSO control, read-out: Compound Concentration (ppm) sufficient for ≥90% inhibition of Fv
[8] = ≥90% growth inhibition, 48 hours, vs 2% DMSO control, read-out: Compound Concentration (ppm) sufficient for ≥90% inhibition of Bc
[9] = ≥90% growth inhibition, mycelial plugs, 48 hours, vs 2% DMSO control, read-out: Compound Concentration (ppm) sufficient for ≥90% inhibition of Rs
[10] = ≥90% growth inhibition, 48 hours, vs 2% DMSO control, read-out: Compound Concentration (ppm) sufficient for ≥90% inhibition of Fm
[11] = ≥90% growth inhibition, 48 hours, vs 2% DMSO control, read-out: Compound Concentration (ppm) sufficient for ≥90% inhibition of Pc
[12] = ≥90% growth inhibition, 48 hours, vs 2% DMSO control, read-out: Compound Concentration (ppm) sufficient for ≥90% inhibition of Dm
[13] = ≥90% inhibition, 48 hours vs 2% DMSO control, read-out: Compound Concentration (ppm) sufficient for ≥90% inhibition of growth, St
[14] = ≥90% inhibition, 48 hours vs 2% DMSO control, read-out: Compound Concentration (ppm) sufficient for ≥90% inhibition of growth, Cg
[15] = ≥90% inhibition, 48 hours vs 2% DMSO control, read-out: Compound Concentration (ppm) sufficient for ≥90% inhibition of growth, Fv
[16] = ≥90% inhibition, 48 hours vs 2% DMSO control, read-out: Compound Concentration (ppm) sufficient for ≥90% inhibition of growth, Bc
[17] = ≥90% inhibition, mycelial plugs, 48 hours vs 2% DMSO control, read-out: Compound Concentration (ppm) sufficient for ≥90% inhibition of growth, Rs
[18] = ≥90% inhibition, 48 hours vs 2% DMSO control, read-out: Compound Concentration (ppm) sufficient for ≥90% inhibition of growth, Fm
[19] = ≥90% inhibition, 48 hours vs 2% DMSO control, read-out: Compound Concentration (ppm) sufficient for ≥90% inhibition of growth, Pc
[20] = ≥90% inhibition, 48 hours vs 2% DMSO control, read-out: Compound Concentration (ppm) sufficient for ≥90% inhibition of growth, Dm

| SMILES | IC90 (Septoria tritici (St); [5]) | IC90 [1, 6] | IC90 [2, 7] | IC90 (Botrtyis cinerea (Bc); [8]) | IC90 (Rhizoctonia solani (Rs); [9]) | IC90 [3, 10] | IC90 [4, 11] | IC90 (Diplodia maydis (Dm); [12]) | IC90 (Septoria tritici (St); [13]) | IC90 [1, 14] | IC90 [2, 15] | IC90 (Botrtyis cinerea (Bc); [16]) | IC90 (Rhizoctonia solani (Rs); [17]) | IC90 [3, 18] | IC90 [4, 19] | IC90 (Diplodia maydis (Dm); [20]) | also measured |
| --- | --- | --- | --- | --- | --- | --- | --- | --- | --- | --- | --- | --- | --- | --- | --- | --- | --- |
| CCNC(=O)[C@H](C)n1c(=O)c2c(C)c(-n3nccn3)sc2n(C[C@H](OCCC#N)c2cc(F)ccc2OC)c1=O [Compound I-290] | > 50 µg/mL | 10 µg/mL (≈ 17.6 µM) | 10 µg/mL (≈ 17.6 µM) | 2 µg/mL (≈ 3.51 µM) | 2 µg/mL (≈ 3.51 µM) | 0.4 µg/mL (≈ 0.702 µM) | > 50 µg/mL | ≥ 10 µg/mL | – | – | – | – | – | – | – | – | – |
| CCNC(=O)C(C)(C)n1c(=O)c2c(C)c(-n3nccn3)sc2n(C[C@H](OC(C)C)c2cc(F)ccc2OC)c1=O [Compound I-019] | – | – | – | – | – | – | – | – | > 10 µg/mL | ≥ 0.4 µg/mL | 0.4 µg/mL (≈ 0.698 µM) | ≥ 0.4 µg/mL | 0.08 µg/mL (≈ 0.14 µM) | 0.08 µg/mL (≈ 0.14 µM) | > 50 µg/mL | ≥ 0.4 µg/mL | – |
| CCNC(=O)[C@@H](C)n1c(=O)c2c(C)c(-n3cccn3)sc2n(C[C@H](OCCC#N)c2cc(F)ccc2OC)c1=O [Compound I-295] | > 50 µg/mL | 2 µg/mL (≈ 3.52 µM) | 2 µg/mL (≈ 3.52 µM) | 2 µg/mL (≈ 3.52 µM) | 2 µg/mL (≈ 3.52 µM) | 0.4 µg/mL (≈ 0.703 µM) | > 50 µg/mL | 10 µg/mL (≈ 17.6 µM) | – | – | – | – | – | – | – | – | – |
| COc1ccc(F)cc1[C@H](Cn1c(=O)n(C(C)(C)C(=O)NC(C)C)c(=O)c2c(C)c(-n3nccn3)sc21)OC[C@@H](C)O [Compound I-065] | – | – | – | – | – | – | – | – | ≥ 2 µg/mL | 0.4 µg/mL (≈ 0.664 µM) | 0.4 µg/mL (≈ 0.664 µM) | 2 µg/mL (≈ 3.32 µM) | ≥ 0.08 µg/mL | 0.08 µg/mL (≈ 0.133 µM) | ≥ 2 µg/mL | 0.4 µg/mL (≈ 0.664 µM) | – |
| Cc1c(-n2nccn2)sc2c1c(=O)n(C(C)(C)C(=O)NC(C)C)c(=O)n2CCc1cc(F)ccc1CCCC#N [Compound I-328] | > 50 µg/mL | 10 µg/mL (≈ 17.7 µM) | 0.4 µg/mL (≈ 0.707 µM) | 2 µg/mL (≈ 3.54 µM) | 10 µg/mL (≈ 17.7 µM) | 0.4 µg/mL (≈ 0.707 µM) | > 50 µg/mL | 2 µg/mL (≈ 3.54 µM) | – | – | – | – | – | – | – | – | – |
| COc1ccc(F)cc1[C@H](Cn1c(=O)n([C@H](C)C(=O)NC(C)C)c(=O)c2c(C)c(-n3nccn3)sc21)OC(C)C [Compound I-061] | – | – | – | – | – | – | – | – | > 50 µg/mL | 0.08 µg/mL (≈ 0.14 µM) | 0.4 µg/mL (≈ 0.698 µM) | 0.4 µg/mL (≈ 0.698 µM) | 0.4 µg/mL (≈ 0.698 µM) | 0.08 µg/mL (≈ 0.14 µM) | > 50 µg/mL | 0.4 µg/mL (≈ 0.698 µM) | – |
| Cc1c(-n2nccn2)sc2c1c(=O)n(C(C)(C)C(=O)NC(C)C)c(=O)n2C[C@H](O[C@H]1CC[C@@H](O)CC1)c1cc(F)ccc1OCC#N [Compound I-268] | > 50 µg/mL | 2 µg/mL (≈ 3 µM) | 2 µg/mL (≈ 3 µM) | 2 µg/mL (≈ 3 µM) | 0.4 µg/mL (≈ 0.599 µM) | 0.08 µg/mL (≈ 0.12 µM) | > 50 µg/mL | ≥ 2 µg/mL | – | – | – | – | – | – | – | – | – |
| COc1ccc(F)cc1[C@H](Cn1c(=O)n(C(C)(C)C(=O)NCC(C)C)c(=O)c2c(C)c(-n3nccn3)sc21)OC1CCOCC1 [Compound I-040] | – | – | – | – | – | – | – | – | ≥ 10 µg/mL | ≥ 0.4 µg/mL | 0.4 µg/mL (≈ 0.622 µM) | 0.4 µg/mL (≈ 0.622 µM) | 2 µg/mL (≈ 3.11 µM) | 0.08 µg/mL (≈ 0.124 µM) | > 50 µg/mL | ≥ 0.4 µg/mL | – |
| CCNC(=O)C(C)(C)n1c(=O)c2c(C)c(-n3nccn3)sc2n(C[C@@H](O)c2cc(F)ccc2OC)c1=O [Compound I-291] | – | – | – | – | – | – | – | – | – | – | – | – | – | – | – | – | IC90 (Septoria tritici (St); concentration sufficient to ≥90% inhibition of growth, 48 hours vs 2% DMSO control, read-out: Compound Concentration (ppm) for ≥90% inhibition, St): > 50 µg/mL; IC90 ([1]; concentration sufficient to ≥90% inhibition of growth, 48 hours vs 2% DMSO control, read-out: Compound Concentration (ppm) for ≥90% inhibition, Cg): > 50 µg/mL; IC90 ([2]; concentration sufficient to ≥90% inhibition of growth, 48 hours vs 2% DMSO control, read-out: Compound Concentration (ppm) for ≥90% inhibition, Fv): 50 µg/mL (≈ 94.2 µM); IC90 (Botrtyis cinerea (Bc); concentration sufficient to ≥90% inhibition of growth, 48 hours vs 2% DMSO control, read-out: Compound Concentration (ppm) for ≥90% inhibition, Bc): 50 µg/mL (≈ 94.2 µM); IC90 (Rhizoctonia solani (Rs); concentration sufficient to ≥90% inhibition of growth, 48 hours vs 2% DMSO control, read-out: Compound Concentration (ppm) for ≥90% inhibition, Rs): 2 µg/mL (≈ 3.77 µM); IC90 ([3]; concentration sufficient to ≥90% inhibition of growth, 48 hours vs 2% DMSO control, read-out: Compound Concentration (ppm) for ≥90% inhibition, Fm): 10 µg/mL (≈ 18.8 µM); IC90 ([4]; concentration sufficient to ≥90% inhibition of growth, 48 hours vs 2% DMSO control, read-out: Compound Concentration (ppm) for ≥90% inhibition, Pc): > 50 µg/mL; IC90 (Diplodia maydis (Dm); concentration sufficient to ≥90% inhibition of growth, 48 hours vs 2% DMSO control, read-out: Compound Concentration (ppm) for ≥90% inhibition, Dm): 50 µg/mL (≈ 94.2 µM) |
| CCNC(=O)[C@H](C)n1c(=O)c2c(C)c(C(=O)OCC)sc2n(C[C@H](OCCC#N)c2cc(F)ccc2OC)c1=O [Compound I-305] | > 50 µg/mL | 2 µg/mL (≈ 3.48 µM) | 0.4 µg/mL (≈ 0.696 µM) | 0.4 µg/mL (≈ 0.696 µM) | 0.4 µg/mL (≈ 0.696 µM) | 0.08 µg/mL (≈ 0.139 µM) | > 50 µg/mL | 2 µg/mL (≈ 3.48 µM) | – | – | – | – | – | – | – | – | – |
